# Data as given in patent EP0642787A2, “Cessation of tobacco use” (ELI LILLY AND COMPANY, priority 1993, dated 1995).
# Assays:
# 5HT1A receptor [1] = test: Serotonin syndrome test (antagonism of 8-OH-DPAT-induced signs); assay type: in vivo, rats; details: exception at 1.0 or 10 mg/kg s.c. (dose not specified); 4 point scale 0-3
# 5HT1A receptor [2] = test: as above; assay type: in vivo, rats; details: 4 point scale 0-3; for LLR score / FBP score / lower lip retraction (LLR) score / flat body posture (FBP) score: 8-OH-DPAT alone scores 3
# Protocol: Adult male rats are placed singly in clear plastic cages for behavioral observations. Preferably, the cages have metal screen lids and fresh sawdust covering the floor. The animals are adapted to the cages for a short period, and then the compounds to be tested are administered at doses and route determined by the experimenter, based on the probable potency of the test compounds. After 15 minutes, each rat is then given a subcutaneous injection of 0.1 mg/kg of 8-hydroxy-2-dipropylaminotetralin (8-OH-DPAT). Fifteen minutes after administration of the 8-OH-DPAT, the animals are evaluated for evidence of the following signs: reciprocal forepaw treading; Straub tail (rigid or corkscrew); lateral head weaving; hind limb abduction; resting tremor, especially of the head and forepaws; lower-lip retraction; and flat-body posture.
# Those signs are produced by 8-OH-DPAT, and the administration of 5HT1A antagonists is able to block or greatly attenuate the appearance of the signs.
# 5HT1A receptor [3] = target: 5HT1A receptor (Homo sapiens, UniProt P08908); details: partial agonist; cited from earlier work
# [4] = 3 mg/kg test compound s.c., then 8-OH-DPAT 0.1 mg/kg s.c.
# Chain of 5HT1A receptor (Homo sapiens, UniProt P08908) (P08908 whole entry): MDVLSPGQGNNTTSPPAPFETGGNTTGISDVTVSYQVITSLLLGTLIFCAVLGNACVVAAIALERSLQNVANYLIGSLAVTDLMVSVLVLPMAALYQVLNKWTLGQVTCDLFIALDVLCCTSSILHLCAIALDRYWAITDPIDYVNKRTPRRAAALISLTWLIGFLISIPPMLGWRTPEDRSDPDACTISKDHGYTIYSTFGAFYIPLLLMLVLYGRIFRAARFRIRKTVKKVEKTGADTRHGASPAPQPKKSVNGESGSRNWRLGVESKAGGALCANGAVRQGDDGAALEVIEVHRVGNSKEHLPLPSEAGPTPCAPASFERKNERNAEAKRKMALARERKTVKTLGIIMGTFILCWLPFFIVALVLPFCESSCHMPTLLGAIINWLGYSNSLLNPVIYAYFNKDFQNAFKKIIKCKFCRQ
SMILES,LLR score (5HT1A receptor [2]; 1 mg/kg test compound s.c.),FBP score (5HT1A receptor [2]; 10 mg/kg test compound s.c.),LLR score (5HT1A receptor [2]; 10 mg/kg test compound s.c.),lower lip retraction (LLR) score (5HT1A receptor [2]; [4]),further results
OC(CN[C@@H]1C[C@H]2CC[C@@H]1C2)COc1cccc2[nH]ccc12 (relative stereo) [(exo)-1-(4-indolyloxy)-3-norbornylamino-2-propanol],≤ 1,≤ 0.5,≤ 1,–,LLR score at 20 minutes after administration of 8-OH-DPAT (5HT1A receptor [1]): 1.25; FBP score (5HT1A receptor [2]; 1.0 mg/kg test compound s.c.): ≤ 0.5
"O=C(O)C(=O)O.OC(CNCCCCc1ccccc1)COc1cccc2[nH]ccc12 (stereo not shown) [1-(4-indolyloxy)-3-(4-phenylbutylamino)-2-propanol, oxalate salt]",–,1.25,–,–,"peak LLR score (5HT1A receptor [2]; 10 mg/kg test compound s.c., score quickly declined from its peak): 2"
OC(CNC1CCCCCC1)COc1cccc2[nH]ccc12 (stereo not shown) [1-(4-indolyloxy)-3-cycloheptylamino-2-propanol],≤ 1.75,–,0,≤ 1.75,FBP score (5HT1A receptor [2]; doses of 1 mg/kg and above s.c.): below 1
"O=C(O)CCC(=O)O.O[C@@H](CNC1CCCCC1)COc1cccc2[nH]ccc12 [(S)-(-)-1-(4-indolyloxy)-3-cyclohexylamino-2-propanol, butanedioate salt]",–,–,–,completely abolished,flat body posture (FBP) score (5HT1A receptor [2]; 0.3 mg/kg test compound s.c.): below 2; lower lip retraction (LLR) score (5HT1A receptor [2]; 0.3 mg/kg test compound s.c.): below 2; flat body posture (FBP) score (5HT1A receptor [2]; [4]): completely abolished
O=C1CC2(CCCC2)CC(=O)N1CCCCN1CCN(c2ncccn2)CC1 [Buspirone],–,–,–,–,antagonistic activity at the 5HT1A receptor (5HT1A receptor [3]): about 30%
